Source: US12077503B2, “Substituted cyclic amides and their use as herbicides” (FMC CORPORATION, priority 2015, dated 2024)
Like-named read-outs stand apart in the source and are kept apart here.

Tests used:
Experiment in all cases: Test A postemergence
Assay type in all cases: in vivo
[1] = system: giant foxtail (Setaria faberii); settings: Setaria faberi, post-emergence, 240 h; for pest or weed control at 125 g/ha: 125 g ai/ha; for pest or weed control at 31 g/ha: 31 g ai/ha, visual injury after approx. 10 d, 0 to 100 scale, 0 no effect, 100 complete control
In short: (§1)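 Seeded soil received test chemicals as a preemergence directed spray, and seedlings at one to two leaves, 2–10 cm tall, received them postemergence, in a non-phytotoxic, surfactant-containing solvent mixture. Pots were held in a greenhouse for approximately 10 d, then rated for injury from 0, no effect, to 100, complete control.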

[2] = system: barnyardgrass (Echinochloa crus-galli); settings: Echinochloa crus-galli, post-emergence, 240 h; for pest or weed control at 125 g/ha: 125 g ai/ha; for pest or weed control at 31 g/ha: 31 g ai/ha, visual injury after approx. 10 d, 0 to 100 scale, 0 no effect, 100 complete control
In short: as §1

[3] = system: pigweed (Amaranthus retroflexus); settings: Amaranthus retroflexus, post-emergence, 240 h; for pest or weed control at 125 g/ha: 125 g ai/ha; for pest or weed control at 31 g/ha: 31 g ai/ha, visual injury after approx. 10 d, 0 to 100 scale, 0 no effect, 100 complete control
In short: as §1

corn (Zea mays) = settings: Zea mays, post-emergence, 240 h; for Corn plant response rating (crop injury, 0 = no effect, 100 = complete kill) at 125 g/ha / plant injury at 125 g/ha: 125 g ai/ha; for Corn plant response rating (crop injury, 0 = no effect, 100 = complete kill) at 125 g/ha: visual injury after approximately 10 d; for plant injury at 125 g/ha: visual injury rating after approximately 10 d, read-out: Corn plant response rating (0 to 100 scale, 0 no effect, 100 complete control); for Corn plant response rating (crop injury, 0 = no effect, 100 = complete kill) at 31 g/ha: 31 g ai/ha, visual injury after approx. 10 d, 0 to 100 scale, 100 complete control
In short: as §1

[4] = system: Galium (catchweed bedstraw, Galium aparine); settings: Galium, post-emergence, 240 h; for pest or weed control at 125 g/ha: 125 g ai/ha; for pest or weed control at 31 g/ha: 31 g ai/ha, visual injury after approx. 10 d, 0 to 100 scale, 0 no effect, 100 complete control
In short: as §1

[5] = postemergence, visual injury after approximately 10 d, 0 to 100 scale (0 no effect, 100 complete control), read-out: Plant response rating, Foxtail, Giant
[6] = postemergence, visual injury after approximately 10 d, 0 to 100 scale (0 no effect, 100 complete control), read-out: Plant response rating, Barnyardgrass
[7] = postemergence, visual injury after approximately 10 d, 0 to 100 scale (0 no effect, 100 complete control), read-out: Plant response rating, Pigweed
[8] = postemergence, 0 to 100 scale (0 no effect, 100 complete control)
[9] = postemergence, visual injury after approximately 10 d, 0 to 100 scale (0 no effect, 100 complete control), read-out: Plant response rating, Galium
[10] = postemergence, visual injury rating after approximately 10 d, read-out: Foxtail, Giant plant response rating (0 to 100 scale, 0 no effect, 100 complete control)
[11] = Postemergence, read-out: Plant response rating, Foxtail, Giant
[12] = postemergence, visual injury rating after approximately 10 d, read-out: Barnyardgrass plant response rating (0 to 100 scale, 0 no effect, 100 complete control)
[13] = Postemergence, read-out: Plant response rating, Barnyardgrass
[14] = postemergence, visual injury rating after approximately 10 d, read-out: Pigweed plant response rating (0 to 100 scale, 0 no effect, 100 complete control)
[15] = Postemergence, read-out: Plant response rating, Pigweed
[16] = postemergence, visual injury rating after approximately 10 d, read-out: Galium plant response rating (0 to 100 scale, 0 no effect, 100 complete control)
[17] = Postemergence, read-out: Plant response rating, Galium
[18] = Postemergence, visual injury after approximately 10 d, 0 to 100 scale where 0 is no effect and 100 is complete control, read-out: Plant response rating, Foxtail, Giant
[19] = Postemergence, visual injury after approximately 10 d, 0 to 100 scale where 0 is no effect and 100 is complete control, read-out: Plant response rating, Barnyardgrass
[20] = Postemergence, visual injury after approximately 10 d, 0 to 100 scale where 0 is no effect and 100 is complete control, read-out: Plant response rating, Pigweed
[21] = Postemergence, 0 to 100 scale where 0 is no effect and 100 is complete control
[22] = Postemergence, visual injury after approximately 10 d, 0 to 100 scale where 0 is no effect and 100 is complete control, read-out: Plant response rating, Galium

Compound CCc1ccc([C@H]2CNC(=S)[C@@H]2C(=O)Nc2ccccc2SC)cc1 [Compound 763] has a pest or weed control at 125 g/ha [1, 5] of 0%, a pest or weed control at 125 g/ha [2, 6] of 0% and a pest or weed control at 125 g/ha [3, 7] of 0%. The Corn plant response rating (crop injury, 0 = no effect, 100 = complete kill) at 125 g/ha (corn (Zea mays); [8]) was 0% and the pest or weed control at 125 g/ha [4, 9] was 0%.

Compound O=C1NC[C@H](c2ccc3c(c2)OCO3)[C@H]1C(=O)Nc1ccccc1F [Compound 767] has a pest or weed control at 125 g/ha [1, 5] of 0%, a pest or weed control at 125 g/ha [2, 6] of 70% and a pest or weed control at 125 g/ha [3, 7] of 0%. The Corn plant response rating (crop injury, 0 = no effect, 100 = complete kill) at 125 g/ha (corn (Zea mays); [8]) was 0% and the pest or weed control at 125 g/ha [4, 9] was 0%.

O=C1NC[C@H](c2ccc(OC(F)F)cc2)[C@H]1C(=O)Nc1ccccc1F [Compound 778] gave a pest or weed control at 125 g/ha [1, 5] of 70%, a pest or weed control at 125 g/ha [2, 6] of 80% and a pest or weed control at 125 g/ha [3, 7] of 10%. The Corn plant response rating (crop injury, 0 = no effect, 100 = complete kill) at 125 g/ha (corn (Zea mays); [8]) was 0% and the pest or weed control at 125 g/ha [4, 9] was 60%.

Compound CC(F)(F)c1cccc([C@H]2CNC(=O)[C@@H]2C(=O)Nc2ccc(F)cc2F)c1 [Compound 781] has a pest or weed control at 125 g/ha [1, 5] of 80%, a pest or weed control at 125 g/ha [2, 6] of 90% and a pest or weed control at 125 g/ha [3, 7] of 0%. For the same compound, the Corn plant response rating (crop injury, 0 = no effect, 100 = complete kill) at 125 g/ha (corn (Zea mays); [8]) was 60% and the pest or weed control at 125 g/ha [4, 9] was 60%.

For CC(F)(F)c1cccc([C@H]2CNC(=O)[C@@H]2C(=O)Nc2ccccc2F)c1 [Compound 782], the pest or weed control at 125 g/ha [1, 5] was 90%, the pest or weed control at 125 g/ha [2, 6] was 90% and the pest or weed control at 125 g/ha [3, 7] was 0%. The Corn plant response rating (crop injury, 0 = no effect, 100 = complete kill) at 125 g/ha (corn (Zea mays); [8]) was 60% and the pest or weed control at 125 g/ha [4, 9] was 70%.

In the case of O=C1NC[C@H](c2ccc3c(c2)CCO3)[C@H]1C(=O)Nc1cccc(F)c1F [Compound 785], the pest or weed control at 125 g/ha [1, 5] is reported as 70%, the pest or weed control at 125 g/ha [2, 6] is reported as 90% and the pest or weed control at 125 g/ha [3, 7] is reported as 0%. It also gave a Corn plant response rating (crop injury, 0 = no effect, 100 = complete kill) at 125 g/ha (corn (Zea mays); [8]) of 0% and a pest or weed control at 125 g/ha [4, 9] of 50%.

For Cc1cc([C@H]2CNC(=O)[C@@H]2C(=O)Nc2ccc(F)cc2F)ccc1Cl [Compound 791], the pest or weed control at 125 g/ha [1, 5] was 30%, the pest or weed control at 125 g/ha [2, 6] was 60% and the pest or weed control at 125 g/ha [3, 7] was 0%. For the same compound, the Corn plant response rating (crop injury, 0 = no effect, 100 = complete kill) at 125 g/ha (corn (Zea mays); [8]) was 0% and the pest or weed control at 125 g/ha [4, 9] was 60%.

For O=C(Nc1cccc(F)c1F)[C@H]1C(=O)N(O)CC[C@@H]1c1ccc(F)cc1 [Compound 805], the pest or weed control at 125 g/ha [1, 10] was 0%, the pest or weed control at 31 g/ha [1, 11] was 0% and the pest or weed control at 125 g/ha [2, 12] was 0%. It also gave a pest or weed control at 31 g/ha [2, 13] of 0%, a pest or weed control at 125 g/ha [3, 14] of 0% and a pest or weed control at 31 g/ha [3, 15] of 0%. The plant injury at 125 g/ha (corn (Zea mays); postemergence) was 0%, the Corn plant response rating (crop injury, 0 = no effect, 100 = complete kill) at 31 g/ha (corn (Zea mays); Postemergence) was 0% and the pest or weed control at 125 g/ha [4, 16] was 0%. It also gave a pest or weed control at 31 g/ha [4, 17] of 0%.

CSc1ccccc1NC(=O)[C@H]1C(=O)N(C)CC[C@@H]1c1ccc2c(c1)OC(F)(F)O2 [Compound 814] was tested, and the pest or weed control at 125 g/ha [1, 10] was 0%, the pest or weed control at 31 g/ha [1, 11] was 0% and the pest or weed control at 125 g/ha [2, 12] was 0%. It also gave a pest or weed control at 31 g/ha [2, 13] of 0%, a pest or weed control at 125 g/ha [3, 14] of 0% and a pest or weed control at 31 g/ha [3, 15] of 0%. It also gave a plant injury at 125 g/ha (corn (Zea mays); postemergence) of 0%, a Corn plant response rating (crop injury, 0 = no effect, 100 = complete kill) at 31 g/ha (corn (Zea mays); Postemergence) of 0% and a pest or weed control at 125 g/ha [4, 16] of 0%. For the same compound, the pest or weed control at 31 g/ha [4, 17] was 0%.

CN1C[C@H](c2cc(F)c(C(F)(F)F)c(F)c2)[C@@H](C(=O)Nc2ccccc2F)C1=O [Compound 899] was tested, and the pest or weed control at 125 g/ha [1, 10] was 90%, the pest or weed control at 125 g/ha [2, 12] was 80% and the pest or weed control at 125 g/ha [3, 14] was 0%. The plant injury at 125 g/ha (corn (Zea mays); postemergence) was 40% and the pest or weed control at 125 g/ha [4, 16] was 0%.

In the case of COc1c(F)ccc([C@H]2CNC(=O)[C@@H]2C(=O)Nc2ccccc2S(C)(=O)=O)c1Cl [Compound 916], the pest or weed control at 125 g/ha [1, 18] is reported as 0%, the pest or weed control at 125 g/ha [2, 19] is reported as 30% and the pest or weed control at 125 g/ha [3, 20] is reported as 0%. It also gave a Corn plant response rating (crop injury, 0 = no effect, 100 = complete kill) at 125 g/ha (corn (Zea mays); [21]) of 0% and a pest or weed control at 125 g/ha [4, 22] of 30%.

With CN1CC[C@H](c2cccc(Cl)c2)[C@@H](C(=O)Nc2ccccc2F)C1=O [Compound 922] the pest or weed control at 125 g/ha [1, 18] was 50%, the pest or weed control at 125 g/ha [2, 19] was 90% and the pest or weed control at 125 g/ha [3, 20] was 0%. For the same compound, the Corn plant response rating (crop injury, 0 = no effect, 100 = complete kill) at 125 g/ha (corn (Zea mays); [21]) was 0% and the pest or weed control at 125 g/ha [4, 22] was 0%.

CN1CC[C@H](c2cccc(Cl)c2)[C@@H](C(=O)Nc2ccccc2S(C)(=O)=O)C1=O [Compound 923] was tested, and the pest or weed control at 125 g/ha [1, 18] was 0%, the pest or weed control at 125 g/ha [2, 19] was 0% and the pest or weed control at 125 g/ha [3, 20] was 0%. For the same compound, the Corn plant response rating (crop injury, 0 = no effect, 100 = complete kill) at 125 g/ha (corn (Zea mays); [21]) was 0% and the pest or weed control at 125 g/ha [4, 22] was 0%.

Compound O=C(Nc1cccc(Cl)c1F)[C@H]1C(=O)N(C2CC2)CC[C@@H]1c1cccc(C(F)(F)F)c1 [Compound 926] has a pest or weed control at 125 g/ha [1, 18] of 40%, a pest or weed control at 125 g/ha [2, 19] of 40% and a pest or weed control at 125 g/ha [3, 20] of 0%. The Corn plant response rating (crop injury, 0 = no effect, 100 = complete kill) at 125 g/ha (corn (Zea mays); [21]) was 0% and the pest or weed control at 125 g/ha [4, 22] was 0%.

CS(=O)(=O)c1ccccc1NC(=O)[C@H]1C(=O)N(C2CC2)CC[C@@H]1c1cccc(C(F)(F)F)c1 [Compound 927] showed a pest or weed control at 125 g/ha [1, 18] of 0%, a pest or weed control at 125 g/ha [2, 19] of 0% and a pest or weed control at 125 g/ha [3, 20] of 0%. It also gave a Corn plant response rating (crop injury, 0 = no effect, 100 = complete kill) at 125 g/ha (corn (Zea mays); [21]) of 0% and a pest or weed control at 125 g/ha [4, 22] of 0%.

Work on CN1C[C@H](c2cc(F)cc(C(F)(F)F)c2)[C@@H](C(=O)Nc2cccc(Cl)c2F)C1=O [Compound 995] yielded a pest or weed control at 125 g/ha [1, 18] of 80%, a pest or weed control at 125 g/ha [2, 19] of 60% and a pest or weed control at 125 g/ha [3, 20] of 0%. For the same compound, the Corn plant response rating (crop injury, 0 = no effect, 100 = complete kill) at 125 g/ha (corn (Zea mays); [21]) was 30% and the pest or weed control at 125 g/ha [4, 22] was 40%.
